# Test results reported in patent publication US5672715A, “Herbicidal substituted 3-aryl-pyrazoles” (Monsanto Company, priority 1995, dated 1997).
# Tests used:
# Type in all cases: in vivo
# Wild Oats [1] = assay: post-emergence herbicide test; conditions: Avena fatua, post-emergence, 0.25 lb/A; read-out: % plant inhibition
# Outline: (§1)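 Seeds sown on compacted topsoil, covered, leveled; greenhouse, overhead or subirrigation. Plants 2–3 wk old → atomizer spray, 170.3 kPa, 1870 L/Ha, ~0.4% v/v emulsifier. Readout: % inhibition.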
# Downy Brome [2] = assay: post-emergence herbicide test; conditions: Bromus tectorum, post-emergence, 0.25 lb/A; read-out: % plant inhibition
# Outline: as §1
# Cocklebur [3] = assay: post-emergence herbicide test; conditions: Xanthium strumarium, post-emergence, 0.25 lb/A; read-out: % plant inhibition
# Outline: as §1
# Bedstraw Catchweed [4] = assay: post-emergence herbicide test; conditions: Galium aparine, post-emergence, 0.25 lb/A; read-out: % plant inhibition
# Outline: as §1
# Corn [5] = assay: post-emergence herbicide test; conditions: Zea mays, post-emergence, 0.25 lb/A; read-out: % plant inhibition
# Outline: as §1
# Barnyardgrass [6] = assay: post-emergence herbicide test; conditions: Echinochloa crus-galli, post-emergence, 0.25 lb/A; read-out: % plant inhibition
# Outline: as §1
# Morning Glory [7] = assay: post-emergence herbicide test; conditions: Ipomoea, post-emergence, 0.25 lb/A; read-out: % plant inhibition
# Outline: as §1
# Common Chickweed [8] = assay: post-emergence herbicide test; conditions: post-emergence, 0.25 lb/A; read-out: % plant inhibition
# Outline: as §1
# Soybean [9] = assay: post-emergence herbicide test; conditions: Glycine max, post-emergence, 0.25 lb/A; read-out: % plant inhibition
# Outline: as §1
# Giant Foxtail [10] = assay: post-emergence herbicide test; conditions: Setaria faberi, post-emergence, 0.25 lb/A; read-out: % plant inhibition
# Outline: as §1
# Seedling Johnsongrass [11] = assay: post-emergence herbicide test; conditions: Sorghum halepense, post-emergence, 0.25 lb/A; read-out: % plant inhibition
# Outline: as §1
# Birdseye Speedwell [12] = assay: post-emergence herbicide test; conditions: post-emergence, 0.25 lb/A; read-out: % plant inhibition
# Outline: as §1
# Blackgrass [13] = assay: post-emergence herbicide test; conditions: Alopecurus myosuroides, post-emergence, 0.25 lb/A; read-out: % plant inhibition
# Outline: as §1
# Rape [14] = assay: post-emergence herbicide test; conditions: post-emergence, 0.25 lb/A; read-out: % plant inhibition
# Outline: as §1
# Wheat [15] = assay: post-emergence herbicide test; conditions: Triticum aestivum, post-emergence, 0.25 lb/A; read-out: % plant inhibition
# Outline: as §1
# Velvetleaf [16] = assay: post-emergence herbicide test; conditions: Abutilon theophrasti, post-emergence, 0.25 lb/A; read-out: % plant inhibition
# Outline: as §1
# Green Foxtail [17] = assay: post-emergence herbicide test; conditions: Setaria viridis, post-emergence, 0.25 lb/A; read-out: % plant inhibition
# Outline: as §1
# Wild Oats [18] = assay: pre-emergence herbicide test; conditions: Avena fatua, pre-emergence, 0.25 lb/A; read-out: % plant inhibition
# Outline: (§2)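 Known amounts of active ingredient went into the cover soil over seeds sown in pans, either before or after the layer was spread. An initial 1/4 inch overhead irrigation was given in some cases; otherwise pans were subirrigated. Rating was % inhibition at ~14 days.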
# Downy Brome [19] = assay: pre-emergence herbicide test; conditions: Bromus tectorum, pre-emergence, 0.25 lb/A; read-out: % plant inhibition
# Outline: as §2
# Cocklebur [20] = assay: pre-emergence herbicide test; conditions: Xanthium strumarium, pre-emergence, 0.25 lb/A; read-out: % plant inhibition
# Outline: as §2
# Bedstraw Catchweed [21] = assay: pre-emergence herbicide test; conditions: Galium aparine, pre-emergence, 0.25 lb/A; read-out: % plant inhibition
# Outline: as §2
# Corn [22] = assay: pre-emergence herbicide test; conditions: Zea mays, pre-emergence, 0.25 lb/A; read-out: % plant inhibition
# Outline: as §2
# Barnyardgrass [23] = assay: pre-emergence herbicide test; conditions: Echinochloa crus-galli, pre-emergence, 0.25 lb/A; read-out: % plant inhibition
# Outline: as §2
# Morning Glory [24] = assay: pre-emergence herbicide test; conditions: Ipomoea, pre-emergence, 0.25 lb/A; read-out: % plant inhibition
# Outline: as §2
# Common Chickweed [25] = assay: pre-emergence herbicide test; conditions: pre-emergence, 0.25 lb/A; read-out: % plant inhibition
# Outline: as §2
# Soybean [26] = assay: pre-emergence herbicide test; conditions: Glycine max, pre-emergence, 0.25 lb/A; read-out: % plant inhibition
# Outline: as §2
# Giant Foxtail [27] = assay: pre-emergence herbicide test; conditions: Setaria faberi, pre-emergence, 0.25 lb/A; read-out: % plant inhibition
# Outline: as §2
# Seedling Johnsongrass [28] = assay: pre-emergence herbicide test; conditions: Sorghum halepense, pre-emergence, 0.25 lb/A; read-out: % plant inhibition
# Outline: as §2
# Birdseye Speedwell [29] = assay: pre-emergence herbicide test; conditions: pre-emergence, 0.25 lb/A; read-out: % plant inhibition
# Outline: as §2
# Blackgrass [30] = assay: pre-emergence herbicide test; conditions: Alopecurus myosuroides, pre-emergence, 0.25 lb/A; read-out: % plant inhibition
# Outline: as §2
# Rape [31] = assay: pre-emergence herbicide test; conditions: pre-emergence, 0.25 lb/A; read-out: % plant inhibition
# Outline: as §2
# Wheat [32] = assay: pre-emergence herbicide test; conditions: Triticum aestivum, pre-emergence, 0.25 lb/A; read-out: % plant inhibition
# Outline: as §2
# Velvetleaf [33] = assay: pre-emergence herbicide test; conditions: Abutilon theophrasti, pre-emergence, 0.25 lb/A; read-out: % plant inhibition
# Outline: as §2
# Green Foxtail [34] = assay: pre-emergence herbicide test; conditions: Setaria viridis, pre-emergence; 0.25 lb/A; read-out: % plant inhibition
# Outline: as §2
Structure (SMILES),inhibition at 280.212 g/ha (Wild Oats [1]),inhibition at 280.212 g/ha (Downy Brome [2]),inhibition at 280.212 g/ha (Cocklebur [3]),inhibition at 280.212 g/ha (Bedstraw Catchweed [4]),inhibition at 280.212 g/ha (Corn [5]),inhibition at 280.212 g/ha (Barnyardgrass [6]),inhibition at 280.212 g/ha (Morning Glory [7]),inhibition at 280.212 g/ha (Common Chickweed [8]),inhibition at 280.212 g/ha (Soybean [9]),inhibition at 280.212 g/ha (Giant Foxtail [10]),inhibition at 280.212 g/ha (Seedling Johnsongrass [11]),inhibition at 280.212 g/ha (Birdseye Speedwell [12]),inhibition at 280.212 g/ha (Blackgrass [13]),inhibition at 280.212 g/ha (Rape [14]),inhibition at 280.212 g/ha (Wheat [15]),inhibition at 280.212 g/ha (Velvetleaf [16]),inhibition at 280.212 g/ha (Green Foxtail [17]),inhibition at 280.212 g/ha (Wild Oats [18]),inhibition at 280.212 g/ha (Downy Brome [19]),inhibition at 280.212 g/ha (Cocklebur [20]),also measured
CSCc1cc(-c2nn(C)c(C(F)(F)F)c2C)c(F)cc1Cl [Compound 27],25%,40%,80%,90%,65%,70%,95%,65%,80%,35%,90%,100%,30%,50%,13%,98%,75%,5%,5%,20%,inhibition at 280.212 g/ha (Bedstraw Catchweed [21]): 65%; inhibition at 280.212 g/ha (Corn [22]): 5%; inhibition at 280.212 g/ha (Barnyardgrass [23]): 60%; inhibition at 280.212 g/ha (Morning Glory [24]): 75%; inhibition at 280.212 g/ha (Common Chickweed [25]): 75%; inhibition at 280.212 g/ha (Soybean [26]): 3%; inhibition at 280.212 g/ha (Giant Foxtail [27]): 50%; inhibition at 280.212 g/ha (Seedling Johnsongrass [28]): 90%; inhibition at 280.212 g/ha (Birdseye Speedwell [29]): 35%; inhibition at 280.212 g/ha (Blackgrass [30]): 35%; inhibition at 280.212 g/ha (Rape [31]): 10%; inhibition at 280.212 g/ha (Wheat [32]): 0%; inhibition at 280.212 g/ha (Velvetleaf [33]): 90%; inhibition at 280.212 g/ha (Green Foxtail [34]): 100%
Cc1c(-c2cc(CS(C)(=O)=O)c(Cl)cc2F)nn(C)c1C(F)(F)F [Compound 28],15%,20%,40%,60%,40%,10%,65%,25%,20%,25%,20%,85%,10%,20%,8%,60%,50%,0%,0%,10%,inhibition at 280.212 g/ha (Bedstraw Catchweed [21]): 40%; inhibition at 280.212 g/ha (Corn [22]): 3%; inhibition at 280.212 g/ha (Barnyardgrass [23]): 15%; inhibition at 280.212 g/ha (Morning Glory [24]): 0%; inhibition at 280.212 g/ha (Common Chickweed [25]): 25%; inhibition at 280.212 g/ha (Soybean [26]): 0%; inhibition at 280.212 g/ha (Giant Foxtail [27]): 30%; inhibition at 280.212 g/ha (Seedling Johnsongrass [28]): 50%; inhibition at 280.212 g/ha (Birdseye Speedwell [29]): 70%; inhibition at 280.212 g/ha (Blackgrass [30]): 30%; inhibition at 280.212 g/ha (Rape [31]): 5%; inhibition at 280.212 g/ha (Wheat [32]): 0%; inhibition at 280.212 g/ha (Velvetleaf [33]): 45%; inhibition at 280.212 g/ha (Green Foxtail [34]): 90%
Cc1c(-c2cc(CSC(C)C)c(Cl)cc2F)nn(C)c1C(F)(F)F [Compound 29],75%,70%,90%,100%,20%,90%,90%,95%,90%,65%,90%,100%,70%,100%,12%,99%,95%,15%,10%,15%,inhibition at 280.212 g/ha (Bedstraw Catchweed [21]): 70%; inhibition at 280.212 g/ha (Corn [22]): 30%; inhibition at 280.212 g/ha (Barnyardgrass [23]): 80%; inhibition at 280.212 g/ha (Morning Glory [24]): 65%; inhibition at 280.212 g/ha (Common Chickweed [25]): 90%; inhibition at 280.212 g/ha (Soybean [26]): 20%; inhibition at 280.212 g/ha (Giant Foxtail [27]): 95%; inhibition at 280.212 g/ha (Seedling Johnsongrass [28]): 100%; inhibition at 280.212 g/ha (Birdseye Speedwell [29]): 70%; inhibition at 280.212 g/ha (Blackgrass [30]): 40%; inhibition at 280.212 g/ha (Rape [31]): 15%; inhibition at 280.212 g/ha (Wheat [32]): 0%; inhibition at 280.212 g/ha (Velvetleaf [33]): 70%; inhibition at 280.212 g/ha (Green Foxtail [34]): 95%
